Source: the supplement of paper PMC11061612

Key:
Test in all cases: combination Emax (second highest fraction inhibited in the dose matrix, 72 h); higher = more inhibition; extreme values may be limits of the assay
[1] = system: 8505C (Thyroid Gland Carcinoma)
How it was run: (§1)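 Bliss excess equals the observed combination effect minus the expected value EA + EB − EA·EB, where EA and EB are the effects of each agent alone. Combination Emax is the second-highest inhibition within the matrix. Inhibition was scaled from CellTiter-Glo 2.0 luminescence, with 0 set by vehicle wells and 1 by blank wells, after 72 hours of two-drug dosing of cells plated in 1536-well plates.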

[2] = system: COR-L279 (Small Cell Lung Carcinoma)
How it was run: as §1

[3] = system: CW-2 (Colorectal Carcinoma)
How it was run: as §1

[4] = system: DAN-G (Pancreatic Carcinoma)
How it was run: as §1

[5] = system: G-361 (Melanoma)
How it was run: as §1

[6] = system: KU812 (Chronic Myelogenous Leukemia)
How it was run: as §1

[7] = system: KY821 (Acute Myeloid Leukemia)
How it was run: as §1

[8] = system: MN-60 (B-Lymphoblastic Leukemia)
How it was run: as §1

[9] = system: MOG-G-CCM (Low Grade Glioma)
How it was run: as §1

[10] = system: NCCIT (Other Solid Carcinomas)
How it was run: as §1

[11] = system: NCI-H3122 (Lung Adenocarcinoma)
How it was run: as §1

[12] = system: NCI-H520 (Squamous Cell Lung Carcinoma)
How it was run: as §1

[13] = system: NCI-H526 (Small Cell Lung Carcinoma)
How it was run: as §1

[14] = system: NCI-H929 (Plasma Cell Myeloma)
How it was run: as §1

[15] = system: PC-3 (Prostate Carcinoma)
How it was run: as §1

[16] = system: RD (Rhabdomyosarcoma)
How it was run: as §1

[17] = system: SNU-398 (Hepatocellular Carcinoma)
How it was run: as §1

[18] = system: SU-DHL-5 (B-Cell Non-Hodgkin's Lymphoma)
How it was run: as §1

[19] = system: SUP-B15 (B-Lymphoblastic Leukemia)
How it was run: as §1

[20] = system: T-T (Esophageal Squamous Cell Carcinoma)
How it was run: as §1

For COc1cc2ncnc(Nc3ccc(F)c(Cl)c3)c2cc1OCCCN1CCOCC1 [Gefitinib] + CC(C)n1c(=O)n(C)c2cnc3cc(F)c(-c4ccc(OCCCN5CCCCC5)nc4)cc3c21 [AZD1390] (first compound max 10 µM, 7x7, partner max 0.3 µM), which “combination Emax” value [1] is on record?
Its value is 0.0956.

And the “combination Emax” value [2]?
The value was 0.395.

And the “combination Emax” value [3]?
The value was 0.41.

What about the “combination Emax” value [4] of the same molecule?
Its value is 0.0121.

And the “combination Emax” value [5]?
Its value is 0.812.

And the “combination Emax” value [6]?
Its value is 0.425.

What about the “combination Emax” value [7] of the same molecule?
The value was 0.416.

What about the “combination Emax” value [8] of the same molecule?
Its value is 0.0314.

And the “combination Emax” value [9]?
The value was 0.137.

And the “combination Emax” value [10]?
Its value is 0.418.

What about the “combination Emax” value [11] of the same molecule?
The value was 0.0961.

And the “combination Emax” value [12]?
The value was 0.15.

And the “combination Emax” value [13]?
Its value is 0.12.

And the “combination Emax” value [14]?
The value was 0.187.

And the “combination Emax” value [15]?
Its value is 0.0447.

What about the “combination Emax” value [16] of the same molecule?
The value was 0.0787.

And the “combination Emax” value [17]?
Its value is 0.0256.

And the “combination Emax” value [18]?
The value was 0.393.

And the “combination Emax” value [19]?
Its value is 0.0538.

And the “combination Emax” value [20]?
The value was 0.411.

With C[C@@H](c1ccc2nccn2c1)n1nnc2ncc(-c3cnn(C)c3)nc21 [Savolitinib] + CN(CC[C@H](CSC1=CC=CC=C1)NC2=C(C=C(C=C2)S(=O)(=O)NC(=O)C3=CC=C(C=C3)N4CCC(CC4)[C@H](C5=CC=CC=C5C6=CC=C(C=C6)Cl)O)S(=O)(=O)C(F)(F)F)CCO [AZD4320] (first compound max 1 µM, 7x7, partner max 1 µM) as the molecule, how does the “combination Emax” value [1] read?
Its value is 0.201.

And the “combination Emax” value [4]?
Its value is 0.199.

What about the “combination Emax” value [5] of the same molecule?
Its value is 0.198.

What about the “combination Emax” value [7] of the same molecule?
The value was 1.

What about the “combination Emax” value [15] of the same molecule?
Its value is 0.189.

And the “combination Emax” value [16]?
Its value is 0.646.

And the “combination Emax” value [17]?
Its value is 0.245.

What about the “combination Emax” value [18] of the same molecule?
The value was 0.24.

What about the “combination Emax” value [19] of the same molecule?
Its value is 1.

What does the source list for CS(=O)(=O)CCNCc1ccc(-c2ccc3ncnc(Nc4ccc(OCc5cccc(F)c5)c(Cl)c4)c3c2)o1 [Lapatinib] + Cn1cnc2c(F)c(Nc3ccc(Br)cc3Cl)c(C(=O)NOCCO)cc21 [Selumetinib] (first compound max 10 µM, 7x7, partner max 10 µM)?
combination Emax [2]: 0.811; combination Emax [3]: 0.576; combination Emax [6]: 0.963; combination Emax [8]: 0.204; combination Emax [9]: 0.257; combination Emax [10]: 0.255; combination Emax [11]: 0.611; combination Emax [12]: 0.357; combination Emax [13]: 0.164; combination Emax [14]: 0.707; combination Emax [20]: 0.843

How did the “combination Emax” value [1] turn out when Cc1c2c(nn1C)CSCc1cc(n(C)n1)CSc1cc(c3ccccc3c1)OCCCc1c(C(=O)O)n(C)c3c-2c(Cl)ccc13 [AZD5991] + Cn1cnc2c(F)c(Nc3ccc(Br)cc3Cl)c(C(=O)NOCCO)cc21 [Selumetinib] (first compound max 1 µM, 7x7, partner max 3 µM) was run?
The value was 0.42.

What about the “combination Emax” value [2] of the same molecule?
The value was 0.18.

And the “combination Emax” value [3]?
The value was 0.314.

What about the “combination Emax” value [4] of the same molecule?
Its value is 0.84.

What about the “combination Emax” value [5] of the same molecule?
Its value is 0.992.

And the “combination Emax” value [6]?
The value was 0.949.

What about the “combination Emax” value [7] of the same molecule?
Its value is 1.

What about the “combination Emax” value [8] of the same molecule?
Its value is 0.323.

What about the “combination Emax” value [9] of the same molecule?
The value was 0.195.

What about the “combination Emax” value [10] of the same molecule?
Its value is 0.579.

What about the “combination Emax” value [11] of the same molecule?
The value was 0.881.

And the “combination Emax” value [12]?
Its value is 0.176.

And the “combination Emax” value [14]?
Its value is 1.

And the “combination Emax” value [15]?
Its value is 0.245.

And the “combination Emax” value [16]?
Its value is 0.625.

What about the “combination Emax” value [17] of the same molecule?
Its value is 1.

What about the “combination Emax” value [18] of the same molecule?
Its value is 1.

What about the “combination Emax” value [19] of the same molecule?
Its value is 1.

What about the “combination Emax” value [20] of the same molecule?
Its value is 0.936.
